What was measured:
Mero83 = test: In vitro combination synergy, Mero83 (Cell-Titer Glo); type: cell-based; conditions: combined with exemplary PRMT5 inhibitor, 120 h, sum of Loewe, Bliss, HSA and ZIP scores
Procedure: (§1) A panel of MTAP-deleted cancer cell lines was assembled to determine whether combining BCL-2 family inhibitors with exemplary PRMT5 inhibitors disclosed herein results in synergistic activity.
(§2) [Assays for determining the synergy score for the pairwise combinations for each cell line were performed in triplicate. 384 or 96-well plates plus additional wells of a separate 384 or 96-well control plate for determining baseline luminescence were seeded with cells of a particular MTAP-deleted cell line in a suitable growth medium for that cell line, e.g., RPMI 1640 medium supplemented with 10% FBS and any cell line specific reagents needed for growth. The plates were incubated overnight at 37 °C in a 5% CO2 atmosphere.
(§3) To each of the designated baseline wells, Cell-Titer Glo reagent (CTG; Promega Corporation) was added to each well and the plates were incubated for 20 min shaking at room temperature. Baseline luminescence was quantitated using a BMG ClarioStar multimode plate reader according to the manufacturer's instructions.
(§4) A series of 1000× drug dilutions in 100% DMSO was prepared that includes a 9-point single agent 3-fold dilution of the exemplary PRMT5 inhibitor (of the type described in WO2021/050915) with a top dose of 3000 nM (and a 6-point single agent 5-fold dilution of the BCL-2 family inhibitor with a top dose of 3000 nM as reference standards.
(§5) A 10× intermediate dosing plate was prepared in serum free medium that contains arrayed single agent dilutions of exemplary PRMT5 inhibitor (of the type described in WO2021/050915) and or the BCL-2 family inhibitor. In addition, a matrix of 54 dilution combinations of exemplary PRMT5 inhibitor (of the type described in WO2021/050915) and the BCL-2 family inhibitor was prepared as test samples.
(§6) To each corresponding well of the 384-well plates seeded with the appropriate cell line above, 10× single agent and the 54 combinations of the dose matrix was added and the plates were incubated for 120 hours at 37 °C in 5% CO2 atmosphere. Cell-Titer Glo reagent (CTG) was added to each test well, the plates were incubated for 20 min shaking at room temperature, and luminescence was quantitated using a BMG ClarioStar multimode plate reader according to the manufacturer's instructions. To normalize test samples, the determined baseline luminescence was subtracted from each test sample prior to analysis and mean values are calculated from replicate samples.
(§7) The output of the data from each mathematical model is the assignment of a relative synergy score. The data reported in Table 6 are the aggregate sum of the Loewe additivity, Bliss independence, Highest Single Agent and ZIP synergy scores (“Composite Synergy Score”).

HCC4006 = test: In vitro combination synergy, HCC4006 (Cell-Titer Glo); type: cell-based; conditions: combined with exemplary PRMT5 inhibitor, 120 h, sum of Loewe, Bliss, HSA and ZIP scores
Procedure: as §1, §2, §3, §4, §5, §6, §7

RT4 = test: In vitro combination synergy, RT4 (Cell-Titer Glo); type: cell-based; conditions: combined with exemplary PRMT5 inhibitor, 120 h, sum of Loewe, Bliss, HSA and ZIP scores
Procedure: as §1, §2, §3, §4, §5, §6, §7

H2228 = test: In vitro combination synergy, H2228 (Cell-Titer Glo); type: cell-based; conditions: combined with exemplary PRMT5 inhibitor, 120 h, sum of Loewe, Bliss, HSA and ZIP scores
Procedure: as §1, §2, §3, §4, §5, §6, §7

LU99 = test: In vitro combination synergy, LU99 (Cell-Titer Glo); type: cell-based; conditions: combined with exemplary PRMT5 inhibitor, 120 h, sum of Loewe, Bliss, HSA and ZIP scores
Procedure: as §1, §2, §3, §4, §5, §6, §7

SW1573 = test: In vitro combination synergy, SW1573 (Cell-Titer Glo); type: cell-based; conditions: combined with exemplary PRMT5 inhibitor, 120 h, sum of Loewe, Bliss, HSA and ZIP scores
Procedure: as §1, §2, §3, §4, §5, §6, §7

H1437 = test: In vitro combination synergy, H1437 (Cell-Titer Glo); type: cell-based; conditions: combined with exemplary PRMT5 inhibitor, 120 h, sum of Loewe, Bliss, HSA and ZIP scores
Procedure: as §1, §2, §3, §4, §5, §6, §7

H2452 = test: In vitro combination synergy, H2452 (Cell-Titer Glo); type: cell-based; conditions: combined with exemplary PRMT5 inhibitor, 120 h, sum of Loewe, Bliss, HSA and ZIP scores
Procedure: as §1, §2, §3, §4, §5, §6, §7

Miapaca2 = test: In vitro combination synergy, Miapaca2 (Cell-Titer Glo); type: cell-based; conditions: combined with exemplary PRMT5 inhibitor, 120 h, sum of Loewe, Bliss, HSA and ZIP scores
Procedure: as §1, §2, §3, §4, §5, §6, §7

Mero14 = test: In vitro combination synergy, Mero14 (Cell-Titer Glo); type: cell-based; conditions: combined with exemplary PRMT5 inhibitor, 120 h, sum of Loewe, Bliss, HSA and ZIP scores
Procedure: as §1, §2, §3, §4, §5, §6, §7

SU8686 = test: In vitro combination synergy, SU8686 (Cell-Titer Glo); type: cell-based; conditions: combined with exemplary PRMT5 inhibitor, 120 h, sum of Loewe, Bliss, HSA and ZIP scores
Procedure: as §1, §2, §3, §4, §5, §6, §7

H2052 = test: In vitro combination synergy, H2052 (Cell-Titer Glo); type: cell-based; conditions: combined with exemplary PRMT5 inhibitor, 120 h, sum of Loewe, Bliss, HSA and ZIP scores
Procedure: as §1, §2, §3, §4, §5, §6, §7

H1650 = test: In vitro combination synergy, H1650 (Cell-Titer Glo); type: cell-based; conditions: combined with exemplary PRMT5 inhibitor, 120 h, sum of Loewe, Bliss, HSA and ZIP scores
Procedure: as §1, §2, §3, §4, §5, §6, §7

A549 = test: In vitro combination synergy, A549 (Cell-Titer Glo); type: cell-based; conditions: combined with exemplary PRMT5 inhibitor, 120 h, sum of Loewe, Bliss, HSA and ZIP scores
Procedure: as §1, §2, §3, §4, §5, §6, §7

Mero84 = test: In vitro combination synergy, Mero84 (Cell-Titer Glo); type: cell-based; conditions: combined with exemplary PRMT5 inhibitor, 120 h, sum of Loewe, Bliss, HSA and ZIP scores
Procedure: as §1, §2, §3, §4, §5, §6, §7

LU99 xenograft tumors = test: In vivo combination study (LU99 model), Example 1; parameters: species or system female nu/nu mice; conditions: MRTX1719, ABT-263, ABT-199 each 100 mg/kg PO QD, alone or combined
From the text: Immunodeficient female nu/nu mice were implanted with 5×10^6 LU99 cancer cells in 50% Matrigel. Tumor volume measurements were collected using calipers and determined utilizing the formula 0.5×L×W^2 in which L refers to length and W refers to width of each tumor. When tumors reached approximately 125-150 mm^3, animals were randomized to receive A) vehicle, B) a PRMT5 inhibitor, C) navitoclax (ABT-263), D) venetoclax (ABT-199), E) A-1331852, F) the PRMT5 inhibitor and navitoclax, F) the PRMT5 inhibitor and venetoclax, or G) the PRMT5 inhibitor and A-1331852 all administered orally (PO) with the indicated dose and schedule for 20-34 days. Tumor volume was measured twice a week (n=5/treatment group). Average tumor volume and standard error of the mean was calculated and plotted at each study day using GraphPad Prism.
The PRMT5 inhibitor was MRTX1719 administered at 100 mg/kg once a day (QD). MRTX1719 is (2M)-2-(4-(4-(aminomethyl)-1-oxo-1,2-dihydrophthalazin-6-yl)-1-methyl-1H-pyrazol-5-yl)-4-chloro-6-cyclopropoxy-3-fluorobenzonitrile, disclosed as Example 16-8 at p. 307 of the international patent publication No. WO 2021/050915 A1, published 18 Mar. 2021, incorporated by reference in its entirety.
The BCL-2 family inhibitors used in this example, ABT-199 (venetoclax) and ABT-263 (navitoclax), were administered at 100 mg/kg once a day (QD) and supplied by Selleck Chemicals (Houston, TX).

Structure (SMILES) | Composite Synergy Score (Mero83) | Composite Synergy Score (HCC4006) | Composite Synergy Score (RT4) | Composite Synergy Score (H2228) | Composite Synergy Score (LU99) | Composite Synergy Score (SW1573) | Composite Synergy Score (H1437) | Composite Synergy Score (H2452) | Composite Synergy Score (Miapaca2) | Composite Synergy Score (Mero14) | Composite Synergy Score (SU8686) | Composite Synergy Score (H2052) | Composite Synergy Score (H1650) | Composite Synergy Score (A549) | Composite Synergy Score (Mero84) | further results
CN(C)CC#Cc1ccc(OCCCc2sc(N3CCc4cccc(C(=O)Nc5nc6ccccc6s5)c4C3)nc2C(=O)O)c(F)c1 [A-1155463] | −11 | 88 | 37 | 46 | 27 | 29 | 17 | 37 | 44 | 12 | 50 | 14 | 51 | 22 | 0 | 
CC1(C)CCC(CN2CCN(c3ccc(C(=O)NS(=O)(=O)c4ccc(NCC5CCOCC5)c([N+](=O)[O-])c4)c(Oc4cnc5[nH]ccc5c4)c3)CC2)=C(c2ccc(Cl)cc2)C1 [ABT-199, venetoclax] | 20 | −6 | 0 | −13 | −8 | −16 | 2 | 28 | −7 | −8 | 4 | −33 | −11 | −7 | −12 | Average Tumor Volume (LU99 xenograft tumors; day 3): 270 mm^3; Average Tumor Volume (LU99 xenograft tumors; day 6): 462 mm^3; Average Tumor Volume (LU99 xenograft tumors; day 10): 709 mm^3; Average Tumor Volume (LU99 xenograft tumors; day 13): 956 mm^3; Average Tumor Volume (LU99 xenograft tumors; day 17): 1395 mm^3; Average Tumor Volume (LU99 xenograft tumors; day 20): 1675 mm^3; Average Tumor Volume (LU99 xenograft tumors; day −1): 153 mm^3
